Reference: publication PMC8348017 (Molecules, 2021)

Legend:
Format in all cases: biochemical
hMAO-A = target: T1, hMAO-A (Homo sapiens, UniProt P21397); experiment: Amplex Red MAO fluorimetric assay, % inhibition at […]; settings: read-out: hMAO-A % Inh 100 μM
T1 construct: gene MAOA; recombinant hMAO-A
T1 sequence (P21397 1-527): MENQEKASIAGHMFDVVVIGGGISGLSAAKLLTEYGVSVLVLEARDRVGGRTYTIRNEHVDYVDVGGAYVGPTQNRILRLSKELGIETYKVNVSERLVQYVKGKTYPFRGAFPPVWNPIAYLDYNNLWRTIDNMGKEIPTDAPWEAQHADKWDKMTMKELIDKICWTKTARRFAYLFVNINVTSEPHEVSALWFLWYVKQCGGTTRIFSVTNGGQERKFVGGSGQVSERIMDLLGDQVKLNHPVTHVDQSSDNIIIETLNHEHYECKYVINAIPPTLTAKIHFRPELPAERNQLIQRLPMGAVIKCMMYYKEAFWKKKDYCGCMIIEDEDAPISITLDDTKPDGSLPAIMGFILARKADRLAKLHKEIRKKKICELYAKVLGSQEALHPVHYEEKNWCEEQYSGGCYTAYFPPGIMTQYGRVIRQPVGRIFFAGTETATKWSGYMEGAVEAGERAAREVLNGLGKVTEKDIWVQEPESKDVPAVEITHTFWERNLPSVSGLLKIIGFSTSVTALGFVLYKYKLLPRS

hBuChE = target: T2, hBuChE (Homo sapiens, UniProt P06276); experiment: Ellman assay, % inhibition at […]; settings: read-out: hBuChE % Inh 100 μM
T2 construct: gene BCHE; BuChE isolated from human serum

hMAO-B [1] = target: T3, hMAO-B (Homo sapiens, UniProt P27338); experiment: Amplex Red MAO fluorimetric assay, recombinant enzyme, p-tyramine substrate
T3 construct: gene MAOB; recombinant hMAO-B
T3 sequence (P27338 2-520): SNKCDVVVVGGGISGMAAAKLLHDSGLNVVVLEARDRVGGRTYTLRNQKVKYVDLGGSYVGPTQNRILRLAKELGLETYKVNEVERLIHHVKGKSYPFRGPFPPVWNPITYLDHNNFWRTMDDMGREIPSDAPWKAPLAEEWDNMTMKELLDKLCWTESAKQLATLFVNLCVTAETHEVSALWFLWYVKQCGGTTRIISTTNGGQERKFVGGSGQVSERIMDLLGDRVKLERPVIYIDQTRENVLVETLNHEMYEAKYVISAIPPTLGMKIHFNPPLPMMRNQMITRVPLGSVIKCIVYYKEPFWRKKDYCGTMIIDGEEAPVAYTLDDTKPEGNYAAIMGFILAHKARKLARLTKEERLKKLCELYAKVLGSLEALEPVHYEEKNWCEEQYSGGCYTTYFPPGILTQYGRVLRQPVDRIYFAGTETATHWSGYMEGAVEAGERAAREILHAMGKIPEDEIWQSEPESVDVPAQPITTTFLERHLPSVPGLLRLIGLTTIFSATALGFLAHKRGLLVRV

hMAO-B [2] = target: T3, hMAO-B; experiment: Amplex Red MAO fluorimetric assay, % inhibition at […]; settings: read-out: hMAO-B % Inh 100 μM

T2 sequence (P06276 29-602): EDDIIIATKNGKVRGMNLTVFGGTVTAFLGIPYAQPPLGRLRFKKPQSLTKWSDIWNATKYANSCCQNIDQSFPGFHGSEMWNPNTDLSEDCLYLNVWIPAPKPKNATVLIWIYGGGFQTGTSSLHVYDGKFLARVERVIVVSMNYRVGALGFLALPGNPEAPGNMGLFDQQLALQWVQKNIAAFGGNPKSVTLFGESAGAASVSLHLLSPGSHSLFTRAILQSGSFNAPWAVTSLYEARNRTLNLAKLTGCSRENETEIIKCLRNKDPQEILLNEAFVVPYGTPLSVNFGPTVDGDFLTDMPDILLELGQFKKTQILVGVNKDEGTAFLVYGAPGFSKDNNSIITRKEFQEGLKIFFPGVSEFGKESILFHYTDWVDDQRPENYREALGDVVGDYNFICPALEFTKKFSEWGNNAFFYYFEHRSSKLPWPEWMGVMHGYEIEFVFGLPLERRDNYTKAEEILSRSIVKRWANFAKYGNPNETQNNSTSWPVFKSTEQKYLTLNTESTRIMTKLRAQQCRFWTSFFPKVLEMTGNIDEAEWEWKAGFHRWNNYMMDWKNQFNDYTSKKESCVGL

`O=C(/C=C(O)/C=C/c1cc(O)c(O)cc1O)/C=C/c1cc2ccc(O)c(O)c2oc1=O` [compound 12, 7,8-Dihydroxy-3-(7-(2′,4′,5′-trihydroxyphenyl)-3,5-dioxohepta-1,6-dien-1-yl)coumarin] was tested, and the inhibition at 100 µM (hMAO-A) was 60.9 ± 4.09%.

`O=C(/C=C(O)/C=C/c1cc(O)c(O)c(O)c1)/C=C/c1cc2ccc(O)c(O)c2oc1=O` [compound 14, 7,8-Dihydroxy-3-(7-(3′,4′,5′-trihydroxyphenyl)-3,5-dioxohepta-1,6-dien-1-yl)coumarin] was tested, and the inhibition at 100 µM (hMAO-A) was 54.3 ± 3.64%.

`O=C(/C=C/c1c(O)cc(O)cc1O)CC(=O)/C=C/c1cc2cc(O)c(O)cc2oc1=O` [compound 15, 6,7-Dihydroxy-3-(7-(2′,4′,6′-trihydroxyphenyl)-3,5-dioxohepta-1,6-dien-1-yl)coumarin] showed an inhibition at 100 µM (hBuChE) of 50.9 ± 3.41%.

`O=C(/C=C(O)/C=C/c1cc(O)c(O)cc1O)/C=C/c1cc2cc(O)c(O)cc2oc1=O` [compound 16, 6,7-Dihydroxy-3-(7-(2′,4′,5′-trihydroxyphenyl)-3,5-dioxohepta-1,6-dien-1-yl)coumarin] gave an inhibition at 100 µM (hMAO-A) of 58.2 ± 3.9% and an IC50 (hMAO-B [1]) of 26.2 ± 1.76 µM.

With `O=C(/C=C(O)/C=C/c1cc(O)c(O)c(O)c1)/C=C/c1cc2cc(O)c(O)cc2oc1=O` [compound 18, 6,7-Dihydroxy-3-(7-(3′,4′,5′-trihydroxyphenyl)-3,5-dioxohepta-1,6-dien-1-yl)coumarin] the inhibition at 100 µM (hMAO-A) was 51.5 ± 3.45% and the inhibition at 100 µM (hMAO-B [2]) was 55.7 ± 3.74%.
